Reference: article PMC11822212, “High-throughput screening identifies Aurora kinase B as a critical therapeutic target for Merkel cell carcinoma” (Nature Communications, 2025)
Structures can show the parent of a compound that is named as a salt. Where two headings read alike, the source gives them in different places.

Key:
[1] = tested on: six MCC cell lines and four control cell lines; assay: qHTS cell viability, all 10 cell lines screened; type: cell-based
[2] = tested on: VP-MCC cell lines (WAGA, MKL-1, MKL-2); assay: qHTS cell viability, VP-MCC cell lines as a group (mean AUC, VP.MCC.avg); type: cell-based, human
[3] = tested on: VN-MCC cell lines (MCC13, MCC26, UISO); assay: qHTS cell viability, VN-MCC cell lines as a group (mean AUC, VN.MCC.avg); type: cell-based, human
[4] = tested on: MCC cell lines (WAGA, MKL-1, MKL-2, MCC13, MCC26, UISO); assay: qHTS cell viability, all six MCC cell lines as a group (mean AUC, MCC.avg); type: cell-based, human

SMILES | Control-MCC [1] | Control-VP-MCC [2] | Control-VN-MCC [3] | Control-MCC [4] | Control-MCC ([1]; NPC library, therapeutic window: Control avg AUC minus MCC avg AUC) | Control-VP-MCC ([2]; NPC library, therapeutic window: Control avg AUC minus VP-MCC avg AUC) | Control-VN-MCC ([3]; NPC library, therapeutic window: Control avg AUC minus VN-MCC avg AUC)
CCc1c2c(nc3ccc(OC(=O)N4CCC(N5CCCCC5)CC4)cc13)-c1cc3c(c(=O)n1C2)COC(=O)[C@]3(O)CC.Cl [Irinotecan hydrochloride] | 69.4165 | 114.533 | 24.3005 | – | – | – | –
CN1CC[C@]23c4c5ccc(O)c4O[C@H]2[C@@H](O)C=C[C@H]3[C@H]1C5 [Morphine sulfate pentahydrate] | 52.6314 | 53.1007 | 52.1622 | 52.6315 | – | – | –
CCC(=O)C(CC(C)N(C)C)(c1ccccc1)c1ccccc1 (stereo not shown) [Methadone hydrochloride] | 49.7335 | 55.4471 | 44.0199 | – | – | – | –
COc1cc2nc(N3CCN(C(=O)C4CCCO4)CC3)nc(N)c2cc1OC (stereo not shown) [Terazosin hydrochloride] | 50.8672 | 51.2361 | 50.4982 | – | – | – | –
CCOC(=O)N1CCC(=C2c3ccc(Cl)cc3CCc3cccnc32)CC1 [Loratadine] | – | – | – | – | 51.602 | 67.0216 | 36.1824
